Earlier results, collected in US20170007537A1, “PHARMACEUTICAL COMPOSITIONS OF ASENAPINE” (HETERO RESEARCH FOUNDATION, priority 2014, published 2017).

Settings: when swallowed; oral tablet formulation

For `CN1C[C@H]2c3ccccc3Oc3ccc(Cl)cc3[C@@H]2C1.O=C(O)/C=C\C(=O)O` (racemic) [asenapine, (3aRS,12bRS)-5-Chloro-2-methyl-2,3,3a,12b-tetrahydro-1Hdibenzo[2,3:6,7]oxepino[4,5-c]pyrrole(2Z)-2-butenedioate (1:1)], the absolute bioavailability is listed as < 2%.
